# Measurements taken from paper PMC11078990, “Identification and characterization of small molecule inhibitors of the LINE-1 retrotransposon endonuclease” (Nature Communications, 2024).
# Where “and” joins values, the source holds several entries; their conditions need not be identical. Identical values can stand only once.
# Key:
# [1] = target: L1 EN (LINE-1 retrotransposon endonuclease domain) (Homo sapiens, UniProt O00370, N5T); experiment: Fluorescent oligonucleotide EN nicking activity assay; type: biochemical
# L1 EN (LINE-1 retrotransposon endonuclease domain), sequence (O00370 1-239 N5T): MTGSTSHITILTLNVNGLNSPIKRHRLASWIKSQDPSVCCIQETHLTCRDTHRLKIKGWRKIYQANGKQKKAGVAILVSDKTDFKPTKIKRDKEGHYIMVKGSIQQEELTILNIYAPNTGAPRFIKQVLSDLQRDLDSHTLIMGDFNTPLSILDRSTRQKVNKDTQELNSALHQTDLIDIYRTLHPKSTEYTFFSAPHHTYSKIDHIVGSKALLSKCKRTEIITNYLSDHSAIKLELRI
# [2] = target: T1, APE1 (Homo sapiens, UniProt P27695); experiment: APE1 fluorescent oligonucleotide activity assay (abasic site substrate); type: biochemical; details: for APE1 percent activity, Replicate 1 / APE1 percent activity, Replicate 2 / APE1 percent activity, Replicate 3 / APE1 percent activity, average: compound at 25 μM; for APE1 percent activity, average: average of 3 replicates; for activity at 25 µM: inhibitors at 25 μM, relative to 0 μM inhibitor control, mean ± s.d., 3 independent experiments, read-out: APE1 activity (%)
# T1 construct: purchased New England Biolabs (NEB) M0282S
# [3] = test system: substrate oligonucleotide used in the EN activity assay; type: binding; parameters: key to Binding Detected? (Y/N): Binding Detected? (Y/N); Binding Detected? (Y/N)
# [4] = test system: L1 retrotransposition; experiment: HeLa dual-luciferase L1 retrotransposition assay; type: cell-based, human; details: HeLa cells
# [5] = [Inhibitor] 1 μM, technical replicates 1-3, Fig. 2b source data, 1 µM
# [6] = [Inhibitor] 1 μM, technical replicates 1-3, Fig. 2b source data, read-out: EN activity, percent of no inhibitor control
# [7] = [Inhibitor] 5 μM, technical replicates 1-3, Fig. 2b source data, 5 µM
# [8] = [Inhibitor] 5 μM, technical replicates 1-3, Fig. 2b source data, read-out: EN activity, percent of no inhibitor control
# [9] = [Inhibitor] 10 μM, technical replicates 1-3, Fig. 2b source data, 10 µM
# [10] = [Inhibitor] 10 μM, technical replicates 1-3, Fig. 2b source data, read-out: EN activity, percent of no inhibitor control
# [11] = [Inhibitor] 25 μM, technical replicates 1-3, Fig. 2b source data, 25 µM
# [12] = [Inhibitor] 25 μM, technical replicates 1-3, Fig. 2b source data, read-out: EN activity, percent of no inhibitor control
# [13] = [Inhibitor] 50 μM, technical replicates 1-3, Fig. 2b source data, 50 µM
# [14] = [Inhibitor] 50 μM, technical replicates 1-3, Fig. 2b source data, read-out: EN activity, percent of no inhibitor control
# [15] = [Inhibitor] 100 μM, technical replicates 1-3, Fig. 2b source data, 100 µM
# [16] = [Inhibitor] 100 μM, technical replicates 1-3, Fig. 2b source data, read-out: EN activity, percent of no inhibitor control
# [17] = [Inhibitor] 250 μM, technical replicates 1-3, Fig. 2b source data, 250 µM
# [18] = [Inhibitor] 500 μM, technical replicates 1-3, Fig. 2b source data, 500 µM
# [19] = [Inhibitor] 1000 μM, technical replicates 1-3, Fig. 2b source data, 1000 µM
# [20] = [Inhibitor] 1000 μM, technical replicates 1-3, Fig. 2b source data, read-out: EN activity, percent of no inhibitor control
# [21] = [Inhibitor] 250 μM, technical replicates 1-3, Fig. 2b source data, read-out: EN activity, percent of no inhibitor control
# [22] = [Inhibitor] 500 μM, technical replicates 1-3, Fig. 2b source data, read-out: EN activity, percent of no inhibitor control
# [23] = [Inhibitor] 2500 μM, technical replicates 1-3, Fig. 2b source data, 2500 µM
Structure (SMILES),"EN activity, percent of no inhibitor control [1, 5]","EN activity, percent of no inhibitor control [1, 7]","EN activity, percent of no inhibitor control [1, 9]","remaining activity at 10 µM [1, 10] [%]","EN activity, percent of no inhibitor control [1, 11]","EN activity, percent of no inhibitor control [1, 13]","remaining activity at 50 µM [1, 14] [%]","EN activity, percent of no inhibitor control [1, 15]","remaining activity at 100 µM [1, 16] [%]","EN activity, percent of no inhibitor control [1, 17]","EN activity, percent of no inhibitor control [1, 18]","EN activity, percent of no inhibitor control [1, 19]","remaining activity at 1000 µM [1, 20] [%]","APE1 percent activity, Replicate 1 [2] [%]","APE1 percent activity, Replicate 2 [2] [%]","APE1 percent activity, Replicate 3 [2] [%]","APE1 percent activity, average [2] [%]",activity at 25 µM [2] [%],Binding Detected? (Y/N) [3],"remaining activity at 250 µM [1, 21] [%]",also measured
O=C(Nc1ccc(S(=O)(=O)NCc2ccco2)cc1)c1cc(NS(=O)(=O)c2cccs2)cc(NS(=O)(=O)c2cccs2)c1 [AD18],113.77% and 114.319%,110.276% and 111.074%,114.402% and 118.423%,107,99.7158% and 102.855%,87.6677% and 95.4608%,82,45.2675% and 31.8714%,46.3,-2.192% and 4.074% and 1.188%,1.364% and -0.7511% and -2.792%,4.465% and 5.692%,3.32,95.6087,100.395,113.415,103.14,103 ± 9.2,N,–,"remaining activity at 1 µM [1, 6]: 128%; remaining activity at 5 µM [1, 8]: 98.7%; remaining activity at 25 µM [1, 12]: 118%; Effect on L1 retrotransposition [4]: did not significantly impact retrotransposition"
Cc1ccc(NC(=O)CSc2nc(-c3ccccc3F)nc3c2Cc2c(CO)cnc(C)c2O3)cc1 [AD28],96.841% and 106.468%,89.9598% and 81.1542%,–,–,–,92.3894% and 103.331%,89.2,86.184% and 81.609%,79.1,59.9195% and 84.2317% and 41.5158%,4.092% and 40.0005% and 32.2238%,23.297% and 19.7447%,37.6,117.021,119.222,118.718,118.32,118 ± 1.2,N,–,"remaining activity at 1 µM [1, 6]: 95.4%; remaining activity at 5 µM [1, 8]: 92%; EN activity, percent of no inhibitor control ([1]; [Inhibitor] 20 μM, technical replicates 1-3, Fig. 2b source data, 20 µM): 104.354% and 99.6299%; remaining activity at 20 µM ([1]; [Inhibitor] 20 μM, technical replicates 1-3, Fig. 2b source data, read-out: EN activity, percent of no inhibitor control): 87.7%; EN activity, percent of no inhibitor control ([1]; [Inhibitor] 750 μM, technical replicates 1-3, Fig. 2b source data, 750 µM): 45.0869% and 49.2787%; remaining activity at 750 µM ([1]; [Inhibitor] 750 μM, technical replicates 1-3, Fig. 2b source data, read-out: EN activity, percent of no inhibitor control): 52.5%"
COc1ccc([N+](=O)[O-])cc1NC(=O)c1ccc2c(c1)N(Cc1cc(C)ccc1C)C(=O)c1ccccc1S2(=O)=O [AD34],107.144% and 82.3328% (2×),106.747% and 72.7727% (2×),61.3218%,63.6,17.0147%,2.345%,1.88,-0.6009% and -1.977% (2×),–,6.512%,–,–,–,115.867,110.244,115.389,113.833,114 ± 3.1,N,4.89,"remaining activity at 25 µM [1, 12]: 13.4%; Effect on L1 retrotransposition [4]: did not significantly impact retrotransposition"
O=C(O)C1CCC(Cn2c(=S)[nH]c3ccc(F)cc3c2=O)CC1 (centres unmarked) [AD41],–,–,93.0871% and 88.0691%,99.2,–,81.1063% and 95.3657%,81.9,73.6781% and 70.7755%,89.5,52.6672% and 53.2546%,15.8485% and 15.0123%,2.51% and 3.937%,3.26,117.184,102.457,114.725,111.455,112 ± 7.9,N,37.1,"remaining activity at 500 µM [1, 22]: 16.8%; EN activity, percent of no inhibitor control [1, 23]: -0.5395% and 2.354% and 1.088%; EN activity, percent of no inhibitor control ([1]; [Inhibitor] 5000 μM, technical replicates 1-3, Fig. 2b source data, 5000 µM): 3.138% and -0.1325% and -0.6231%"
Cc1cc(O[C@H](C)C(=O)NC[C@H]2CC[C@H](C(=O)O)CC2)c2c3c(c(=O)oc2c1)CCC3 [AD50],–,–,88.1732% and 95.3255%,89.8,105.309% and 98.5437% and 118.945%,102.098% and 94.5993%,99.1,99.5828% and 92.7301%,105,85.2034% and 69.8502%,1.6976% and 1.409%,0.8764% and -0.04895% and -0.3009%,–,117.885,112.48,116.717,115.694,116 ± 2.8,N,78.9,"remaining activity at 500 µM [1, 22]: 1.24%; EN activity, percent of no inhibitor control [1, 23]: 1.256% and 0.4525% and 1.333%"
"NC[C@H]1CC[C@H](C(=O)O)CC1 [tranexamic acid, reference compound]",–,–,–,–,–,–,–,–,–,–,–,–,–,–,–,–,–,–,–,–,"IC50 in the fluorescent oligonucleotide assay [1]: does not inhibit sufficiently to calculate an; inhibition at 25000 µM ([1]; 25 mM, highest soluble concentration): ~75%"
